{"source": "patent US10117890B2", "about": "“Methods and compositions for treating pain” (Academia Sinica, priority 2012, dated 2018)", "key": {"ASIC3": {"test_system": "ASIC3", "experiment": "Whole-cell patch clamp of acid-induced current in CHO cells transfected with ASIC3", "assay_type": "cell-based"}, "[1]": {"test_system": "acid-induced chronic muscle pain after genistein treatment", "experiment": "Modified acid-induced chronic muscle pain model with genistein treatment (fibromyalgia model)", "assay_type": "in vivo, mice", "experimental": "Panel A: a diagram showing that mice were first received an intramuscular injection of genistein (a tyrosine kinase inhibitor) and an acid saline to one side of gastrocnemius muscle, and then pain behaviors were assayed by using von-Frey filament test at 4 hr (D0) and until 29 days (D29) after acid injection. Panel B: is a chart showing that the single acid injection induced long-lasting chronic hyperalgesia in mice with genistein pretreatment (open circles, n=5), but only transient hyperalgesia in mice without genistein pretreatment (filled circles, n=4).\nMice received an intramuscular acid injection in the gastrocnemius muscle (GM) containing 20 μl acid saline (pH 4.0) with or without (Sar^9, Met(O2)^11)-substance P (SP; 4, 10, or 40 μM) or 100 μM RP67580 or 200 μM XE991. Mechanical hyperalgesia was assessed by applying a 0.2-mN von Frey filament to the plantar surface of both hind paws of mice. […] Responses of the paw to mechanical stimuli were measured before injection and at 4 and 24 hr and 5 days after the first acid injection (day 0) and at 4, 24, and 72 hr and 1 week after the second acid injection (day 5). For single-injection experiments, responses to mechanical stimuli were measured before the injection, at 4 hr and at 1, 3, 5, 7, 9, 11, 13, 15 and 22 days after the injection or at 4, 24, 48 hr and 7 and 14 days after the injection. […]"}, "[2]": {"test_system": "muscle nociceptors (ASIC3-positive muscle afferent DRG neurons expressing ISP-O)", "experiment": "Whole-cell patch-clamp recording of outward currents in muscle afferent DRG neurons", "assay_type": "cell-based, mice", "experimental": "The digested DRG neurons were washed with fetal calf serum (FCS)-free DMEM or DMEM containing 10% FCS during each treatment. Fully digested DRGs were triturated and plated on poly-L-lysine-coated cover slides. Cell cultures were maintained in a 5% CO2 incubator at 37° C.\nWhole-cell patch-clamp recordings of muscle-afferent neurons involved use of Axopatch MultiClamp 700B (Axon Instruments). Neurons with membrane potential >−40 mV were discarded. The bridge was balanced in current-clamp recording, and the series resistance was compensated 70% in voltage-clamp recording with […] 700B compensation circuitry. All experiments were performed at room temperature (21-25° C.) and completed within 30 hr post-seeding. Unless specifically mentioned, the patch pipettes were prepared in 1-5 MΩ and filled with internal solution containing (in mM) 100 KCl, 2 Nae-ATP, 0.3 Na3-GTP, 10 EGTA, 5 MgCl2, and 40 HEPES, adjusted to pH 7.4 with KOH. Recording cells were superfused in artificial cerebrospinal fluid (ACSF) by control with gravitational force. The ACSF contained (in mM) 130 NaCl, 5 KCl, 1 MgCl2, 2 CaCl2, 10 glucose, and 20 HEPES, adjusted to pH 7.4 with NaOH. Osmolarity was adjusted to 300 mOsm. The acidic ACSF was titrated to pH 6.8 by […]. […] If not specifically mentioned, drugs listed above were from Sigma Chemical (St. Louis, Mo.).\nThe procedure was repeated at least 2 times to ensure consistent data. […] ACSF-containing compounds were superfused for 1 min to ensure complete replacement of previous perfusate between treatments. […] A recording pipette containing 1 mM GDP-β-S was used in GTP dialysis. The GABA-B current was induced by 100 μM Baclofen at the beginning of dialysis (0, 1 and 2 min after whole-cell patch clamp). Then, Baclofen was used to re-stimulate the dialyzed neurons after 10-min dialysis (10, 11 and 12 min after whole-cell patch clamp)."}}, "data": [{"smiles": "OC[C@H]1O[C@@H](n2cnc3c(NCc4ccc(O)cc4)ncnc32)[C@H](O)[C@@H]1O", "note": "[T1-11, N^6-(4-hydroxybenzyl)adenosine]", "values": [{"measurement": "acid-induced current in CHO cells transfected with ASIC3", "setting": "ASIC3", "result": "blocked"}, {"measurement": "analgesic effect on mice that have developed chronic muscle pain", "setting": "[1]; T1-11 75-150 μg/kg (i.p.)", "result": "dose-dependent analgesic effect"}, {"measurement": "hyperalgesia after genistein pretreatment and single acid injection, co-injection of acid and T1-11", "setting": "[1]; co-injection with acid, n=6, D0 to D29", "result": "only showed the transient hyperalgesia"}, {"measurement": "IT1-11 in A2A−/− muscle afferent DRG neurons", "setting": "[2]; A2A−/− neurons", "result": "not changed"}, {"measurement": "EC50", "setting": "[2]; Mus musculus, DRG neuron, peak whole-cell current, 1, 3, 10, 30 and 100 nM, n=11, read-out: EC50 of T1-11-induced outward current (IT1-11)", "result": 1.3, "unit": "nM"}, {"measurement": "induction of outward current in ASIC3/SP-expressing muscle DRG neurons", "setting": "[2]; SP-sensitive muscle nociceptors", "result": "elicited a slow inactivating outward current"}, {"measurement": "effect on M-type potassium current", "setting": "[2]; voltage shift from −50 mV to −20 mV, muscle afferent neurons expressing ISP-O", "result": "enhanced M current"}]}]}
